Reference: the supplement of paper PMC11451515

What was measured:
Conditions in all cases: 48 h
SEM cells [1] = assay: cell viability relative to DMSO control; higher = less cytotoxic
Procedure, shortened: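 Viability values are per-plate percentages of DMSO wells, with background from cell-free wells. Library compounds in DMSO were pin-dosed, in an 11-point threefold series from 47 μM to 0.79 nM, onto NOMO1 or SEM (500 cells/well) or P12-Ichikawa (1000 cells/well) leukemia cells in 1536-well plates (5 μl). Those cells had been adapted for at least four passages in each medium, and CellTiter-Glo One luminescence was read after 48 h at 37°C.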

NOMO1 = assay: AUC of viability dose-response curve (% viability x log10 dose units); higher = less sensitive
Procedure, shortened: (§1)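 Library compounds in DMSO were applied for 48 h at 37°C at 11 threefold doses (47 μM to 0.79 nM) to medium-adapted leukemia cells in 1536-well plates holding 500 or 1000 cells/well. Luminescence from CellTiter-Glo One was normalised plate by plate against DMSO and cell-free wells. Area under the curve came from trapezoidal integration of a log-logistic fit, after scaling curves that rose above full viability and discarding those that failed quality control. The fit had four parameters and used log10 doses.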

P12-Ichikawa = assay: as above
Procedure, shortened: as §1

SEM cells [2] = assay: as above
Procedure, shortened: as §1

[3] = HPLM + 10% dialyzed FBS, 0.000781 µM
[4] = HPLM + 10% dialyzed FBS, 0.00234 µM
[5] = HPLM + 10% dialyzed FBS, 0.00702 µM
[6] = HPLM + 10% dialyzed FBS, 0.0211 µM
[7] = HPLM + 10% dialyzed FBS, 0.0632 µM
[8] = HPLM + 10% dialyzed FBS, 0.19 µM
[9] = HPLM + 10% dialyzed FBS, 0.569 µM
[10] = HPLM + 10% dialyzed FBS, 1.71 µM
[11] = HPLM + 10% dialyzed FBS, 5.12 µM
[12] = HPLM + 10% dialyzed FBS, 15.4 µM
[13] = HPLM + 10% dialyzed FBS, 46.1 µM
[14] = RPMI 5 mM glucose + 10% dialyzed FBS
[15] = RPMI 5 mM glucose + 10% FBS, 0.000781 µM
[16] = RPMI 5 mM glucose + 10% FBS, 0.00234 µM
[17] = RPMI 5 mM glucose + 10% FBS, 0.00702 µM
[18] = RPMI 5 mM glucose + 10% FBS, 0.0211 µM
[19] = RPMI 5 mM glucose + 10% FBS, 0.0632 µM
[20] = RPMI 5 mM glucose + 10% FBS, 0.19 µM
[21] = RPMI 5 mM glucose + 10% FBS, 0.569 µM
[22] = RPMI 5 mM glucose + 10% FBS, 1.71 µM
[23] = RPMI 5 mM glucose + 10% FBS, 5.12 µM
[24] = RPMI 5 mM glucose + 10% FBS, 15.4 µM
[25] = RPMI 5 mM glucose + 10% FBS, 46.1 µM

Row | Structure (SMILES) | cell viability (SEM cells [1]; [3]) | cell viability (SEM cells [1]; [4]) | cell viability (SEM cells [1]; [5]) | cell viability (SEM cells [1]; [6]) | cell viability (SEM cells [1]; [7]) | cell viability (SEM cells [1]; [8]) | cell viability (SEM cells [1]; [9]) | cell viability (SEM cells [1]; [10]) | cell viability (SEM cells [1]; [11]) | cell viability (SEM cells [1]; [12]) | cell viability (SEM cells [1]; [13]) | AUC of viability dose-response curve (NOMO1; HPLM + 10% dialyzed FBS) | AUC of viability dose-response curve (NOMO1; RPMI 5 mM glucose + 10% FBS) | AUC of viability dose-response curve (NOMO1; [14]) | AUC of viability dose-response curve (P12-Ichikawa; HPLM + 10% dialyzed FBS) | AUC of viability dose-response curve (P12-Ichikawa; RPMI 5 mM glucose + 10% FBS) | AUC of viability dose-response curve (P12-Ichikawa; [14]) | AUC of viability dose-response curve (SEM cells [2]; HPLM + 10% dialyzed FBS) | AUC of viability dose-response curve (SEM cells [2]; RPMI 5 mM glucose + 10% FBS) | AUC of viability dose-response curve (SEM cells [2]; [14]) | cell viability (SEM cells [1]; [15]) | cell viability (SEM cells [1]; [16]) | cell viability (SEM cells [1]; [17]) | cell viability (SEM cells [1]; [18]) | cell viability (SEM cells [1]; [19]) | cell viability (SEM cells [1]; [20]) | cell viability (SEM cells [1]; [21]) | cell viability (SEM cells [1]; [22]) | cell viability (SEM cells [1]; [23]) | cell viability (SEM cells [1]; [24]) | cell viability (SEM cells [1]; [25])
1 | OCCN1C[C@H](O)[C@@H](O)[C@H](O)[C@H]1CO | 93.6% | 116% | 129% | 118% | 86.6% | 114% | 138% | 125% | 134% | 136% | 123% | 296 | 266 | 296 | 365 | 371 | 377 | 432 | 417 | 384 |  |  |  |  |  |  |  |  |  |  | 
2 | O[C@@H]1[C@@H](O)[C@H](O[C@@H]([C@H]1O)C(O)=O)OC2=C(O)C(=C3C(=O)\C=C(/OC3=C2)C4=CC=CC=C4)O |  |  |  |  |  |  |  |  |  |  |  | 445 | 427 | 460 | 447 | 448 | 460 | 446 | 409 | 425 |  |  |  |  |  |  |  |  |  |  | 
3 | O=C(Nc1cccc(Br)c1)c1cccc([S+](=O)([O-])N2CCCCCC2)c1 |  |  |  |  |  |  |  |  |  |  |  | 462 | 460 | 470 | 450 | 457 | 464 | 447 | 436 | 441 |  |  |  |  |  |  |  |  |  |  | 
4 | CCCCCCCCCCCCc1ccc([S+](=O)([O-])Nc2nncs2)cc1 |  |  |  |  |  |  |  |  |  |  |  | 390 | 443 | 452 | 411 | 460 | 451 | 447 | 360 | 415 |  |  |  |  |  |  |  |  |  |  | 
5 | Cn1ccc2cc3c(cc21)CCN3C(=O)Nc1cccnc1 | 100% | 113% | 132% | 116% | 123% | 158% | 140% | 127% | 125% | 137% | 59.8% | 460 | 451 | 466 | 464 | 462 | 463 | 464 | 461 | 461 |  |  |  |  |  |  |  |  |  |  | 
6 | CN1C2CCC1CC(OC(=O)C(CO)c1ccccc1)C2 (centres undefined) |  |  |  |  |  |  |  |  |  |  |  | 467 | 463 | 472 | 454 | 465 | 469 | 464 | 439 | 474 |  |  |  |  |  |  |  |  |  |  | 
7 | C[C@]\12CCC(=O)\C=C1[C@@H]3C[C@@H]3[C@@H]4[C@@H]2CC[C@@]5(C)[C@H]4[C@@H]6C[C@@H]6[C@@]57CCC(=O)O7 | 89.1% | 97.2% | 107% | 123% | 120% | 112% | 106% | 107% | 133% | 107% | 104% | 469 | 477 | 471 | 474 | 468 | 471 | 450 | 451 | 468 | 98.6% | 111% | 115% | 117% | 137% | 146% | 124% | 134% | 119% | 125% | 146%
8 | CSCC[C@H](NC(=O)[C@H](Cc1c[nH]c2ccccc12)NC(=O)CCNC(=O)OC(C)(C)C)C(=O)N[C@@H](CC(=O)O)C(=O)N[C@@H](Cc1ccccc1)C(N)=O |  |  |  |  |  |  |  |  |  |  |  | 440 | 453 | 456 | 470 | 464 | 470 | 460 | 461 | 459 |  |  |  |  |  |  |  |  |  |  | 
9 | COc1c(O)cc2c(c1O)[C@@H]1O[C@H](CO)[C@@H](O)[C@H](O)[C@H]1OC2=O |  |  |  |  |  |  |  |  |  |  |  | 419 | 448 | 454 | 432 | 432 | 427 | 431 | 394 | 409 |  |  |  |  |  |  |  |  |  |  | 
10 | Clc1ccc2ncc(-c3cccc(NC4CNC4)n3)n2c1 | 120% | 121% | 125% | 125% | 136% | 122% | 115% | 113% | 77.5% | 67.1% | 45.8% | 433 | 455 | 443 | 441 | 439 | 443 | 412 | 427 | 411 | 119% | 122% | 131% | 121% | 147% | 141% | 119% | 115% | 105% | 76.9% | 47.6%
11 | CCOC(=O)[C@H](CCc1ccccc1)N[C@H]1CS[C@H](c2cccs2)CN(CC(=O)O)C1=O.Cl |  |  |  |  |  |  |  |  |  |  |  | 384 | 408 | 395 | 400 | 401 | 421 | 461 | 437 | 468 |  |  |  |  |  |  |  |  |  |  | 
12 | NC(=O)c1noc([C@H](CCCC2CCCCC2)CC(=O)NO)n1 |  |  |  |  |  |  |  |  |  |  |  | 431 | 424 | 441 | 441 | 422 | 421 | 428 | 414 | 429 |  |  |  |  |  |  |  |  |  |  | 
